# Reference: publication PMC8097972 (Journal of neurochemistry, 2020)
# Columns and labels:
# Kv1.3 [1] = conditions: ref Knaus et al. 1995; Fadool and Levitan 1998; cited from earlier work
# mitral cells = conditions: cited from earlier work
# Kv1.3 [2] = target: Kv1.3 (Rattus norvegicus, UniProt P15384); assay: Whole-cell patch-clamp inhibition of Kv1.3 in transfected HEK293 cells; assay type: cell-based; conditions: 10 nM; T0 vs T5 (225 s); two-way mixed-design ANOVA
# DIO mice [3] = assay: Intraperitoneal glucose tolerance test in obese mice; assay type: in vivo, mouse; conditions: day +13 after OB pump start, 12 h fasted, vs PBS; treatment p = 0.0146
# DIO mice [4] = assay: Indirect calorimetry; assay type: in vivo, mouse; conditions: +2 to +12, light and dark cycle; light p = 0.496, dark p = 0.2581
# Kv1.3 (Rattus norvegicus, UniProt P15384), sequence (P15384 whole entry): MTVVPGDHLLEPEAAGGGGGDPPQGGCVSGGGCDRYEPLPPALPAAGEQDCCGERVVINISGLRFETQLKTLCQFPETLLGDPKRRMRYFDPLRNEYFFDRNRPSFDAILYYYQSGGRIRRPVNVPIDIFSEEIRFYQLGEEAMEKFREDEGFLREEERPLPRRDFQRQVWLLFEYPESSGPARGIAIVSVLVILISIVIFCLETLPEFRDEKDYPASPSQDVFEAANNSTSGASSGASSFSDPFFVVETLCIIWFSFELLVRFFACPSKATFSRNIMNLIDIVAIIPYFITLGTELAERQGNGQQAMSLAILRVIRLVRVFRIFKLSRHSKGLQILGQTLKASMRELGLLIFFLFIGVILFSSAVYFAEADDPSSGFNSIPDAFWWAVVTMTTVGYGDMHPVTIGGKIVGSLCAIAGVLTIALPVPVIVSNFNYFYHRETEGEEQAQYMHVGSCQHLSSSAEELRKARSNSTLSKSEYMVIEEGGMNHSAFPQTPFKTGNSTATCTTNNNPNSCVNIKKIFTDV
substance,measurement,setting,value
"margatoxin (TIINVKCTSPKQCLPPCKAQFGQSAGAKCMNGKCKCYPH; UniProt P40755 1-39, looked up) [MgTx]",koff (printed as a time),Kv1.3 [1],2 h
same,kon (in words),Kv1.3 [1],rather slow for a vestibule blocker
same,effect on mitral cell spike firing,"mitral cells; ref Mast and Fadool 2012, Thiebaud et al. 2016","increase the spike firing frequency and reduce the pause duration between AP trains, but have less effect on ISI"
insulin,ability to increase mitral cell activity after diet-induced obesity,"mitral cells; following diet-induced obesity, ref Fadool et al. 2011",significantly reduced
"QDMgTx: HisMgTx conjugated to His-PIMA-ZW capped CdSe-ZnS QDs by metal-histidine self-assembly (TIINVKCTSPKQCLPPCKAQFGQSAGAKCMNGKCKCYPH; His tag; self-assembled on CdSe-ZnS quantum dots; UniProt P40755 1-39, looked up)",change in Kv1.3 peak current amplitude (in words),Kv1.3 [2],significantly decreased Kv1.3 peak current amplitude
same,glucose clearance (IPGTT),DIO mice [3],cleared glucose significantly faster than control animals
same,energy expenditure (EE),DIO mice [4],no change in EE in either the light or dark cycle
